From patent publication US9695154B2, “Heteroaryl inhibitors of sumo activating enzyme” (MILLENNIUM PHARMACEUTICALS, INC., priority 2013, dated 2017)

Molecular target: T1, recombinant human SAE enzyme (Homo sapiens, UniProt Q9UBT2)
T1 sequence (Q9UBT2 1-640): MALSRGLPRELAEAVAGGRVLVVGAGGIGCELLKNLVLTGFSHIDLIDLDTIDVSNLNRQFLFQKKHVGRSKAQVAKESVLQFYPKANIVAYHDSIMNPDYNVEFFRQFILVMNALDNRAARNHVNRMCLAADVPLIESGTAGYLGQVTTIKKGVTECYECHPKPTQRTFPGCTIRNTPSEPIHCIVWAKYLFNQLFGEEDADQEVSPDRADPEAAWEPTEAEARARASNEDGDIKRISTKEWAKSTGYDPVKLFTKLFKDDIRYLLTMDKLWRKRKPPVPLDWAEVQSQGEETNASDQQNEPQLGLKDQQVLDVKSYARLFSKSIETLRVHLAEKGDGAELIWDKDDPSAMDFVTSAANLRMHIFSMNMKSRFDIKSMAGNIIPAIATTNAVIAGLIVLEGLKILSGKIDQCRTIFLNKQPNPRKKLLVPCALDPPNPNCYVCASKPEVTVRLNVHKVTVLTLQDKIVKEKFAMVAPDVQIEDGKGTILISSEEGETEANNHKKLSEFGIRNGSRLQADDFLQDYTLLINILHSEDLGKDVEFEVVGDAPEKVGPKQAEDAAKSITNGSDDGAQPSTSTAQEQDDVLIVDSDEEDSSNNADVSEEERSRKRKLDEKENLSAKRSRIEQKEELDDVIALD
T1 sequence (Q9UBE0 1-346 partner): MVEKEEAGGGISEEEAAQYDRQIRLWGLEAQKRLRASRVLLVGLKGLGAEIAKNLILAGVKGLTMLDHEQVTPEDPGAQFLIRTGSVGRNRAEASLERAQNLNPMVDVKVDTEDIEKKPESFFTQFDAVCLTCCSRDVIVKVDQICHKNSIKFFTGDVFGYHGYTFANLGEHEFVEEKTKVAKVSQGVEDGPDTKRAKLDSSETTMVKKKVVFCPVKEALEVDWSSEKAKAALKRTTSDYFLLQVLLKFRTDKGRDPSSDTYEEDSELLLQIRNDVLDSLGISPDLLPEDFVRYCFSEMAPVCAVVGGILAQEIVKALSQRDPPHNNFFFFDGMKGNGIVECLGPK
Assay: SAE HTRF Enzyme Assay
Assay type: biochemical
Conditions: for IC50: class symbols A-C; for inhibition at 0.111 µM: compound concentration 0.111 μM, read-out: Percent Inhibition
Method in brief: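 Reaction with 0.11 nM recombinant human SAE, 0.5 μM ATP, 0.01 μM Ubc9-GST, 0.125 μM Sumo-Flag in HEPES pH 7.5, MgCl2, GSH, BSA, 105 min at 24 °C. Stopped with EDTA/KF buffer carrying Eu-anti-Flag and anti-GST-APC; HTRF read after 2 h; % inhibition or IC50.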

Structure (SMILES) | IC50 | inhibition at 0.111 µM
NS(=O)(=O)OC[C@H]1C[C@@H](Nc2ncncc2C(=O)c2ccn(Cc3cccc(OC(F)F)c3)n2)C[C@@H]1O [Compound I-117, [(1R,2S,4R)-4-{[5-({1-[3-(difluoromethoxy)benzyl]-1H-pyrazol-3-yl}carbonyl)pyrimidin-4-yl]amino}-2-hydroxycyclopentyl]methyl sulfamate] | < 10 nM | 98%
NS(=O)(=O)OC[C@H]1C[C@@H](Nc2ncncc2C(=O)c2ccn(Cc3ccccc3F)n2)[C@H](O)[C@@H]1O [Compound I-338, {(1R,2R,3S,4R)-4-[(5-{[1-(2-fluorobenzyl)-1H-pyrazol-3-yl]carbonyl}pyrimidin-4-yl)amino]-2,3-dihydroxycyclopentyl}methyl sulfamate] | < 10 nM | 99%
Cc1cc(Cn2ccc(C(=O)c3cncnc3N[C@@H]3C[C@H](COS(N)(=O)=O)[C@@H](O)C3)n2)no1 [Compound I-348, [(1R,2S,4R)-2-hydroxy-4-{[5-({1-[(5-methylisoxazol-3-yl)methyl]-1H-pyrazol-3-yl}carbonyl)pyrimidin-4-yl]amino}cyclopentyl]methyl sulfamate] | < 10 nM | 94%
Cc1ccn(CCn2ccc(C(=O)c3cncnc3N[C@@H]3C[C@H](COS(N)(=O)=O)[C@@H](O)[C@H]3O)n2)n1 [Compound I-4, [(1R,2R,3S,4R)-2,3-dihydroxy-4-{[5-({1-[2-(3-methyl-1H-pyrazol-1-yl)ethyl]-1H-pyrazol-3-yl}carbonyl)pyrimidin-4-yl]amino}cyclopentyl]methyl sulfamate] | 10 to 100 nM | 80%
NS(=O)(=O)OC[C@H]1C[C@@H](Nc2ncncc2C(=O)c2ccn(Cc3ccnc(C(F)(F)F)c3)n2)C[C@@H]1O [Compound I-53, [(1R,2S,4R)-2-hydroxy-4-({5-[(1-{[2-(trifluoromethyl)pyridin-4-yl]methyl}-1H-pyrazol-3-yl)carbonyl]pyrimidin-4-yl}amino)cyclopentyl]methyl sulfamate] | 10 to 100 nM | 79%
C=CC(=O)Nc1cccc(Cn2ccc(C(=O)c3cncnc3N[C@@H]3C[C@H](COS(N)(=O)=O)[C@@H](O)[C@H]3O)n2)c1 [Compound I-313, [(1R,2R,3S,4R)-4-{[5-({1-[3-(Acryloylamino)benzyl]-1H-pyrazol-3-yl}carbonyl)pyrimidin-4-yl]amino}-2,3-dihydroxycyclopentyl]methyl sulfamate] | < 10 nM | 95%
NS(=O)(=O)OC[C@H]1C[C@@H](Nc2ncncc2C(=O)c2ccn(Cc3ccc(Cl)c(Br)c3)n2)[C@H](O)[C@@H]1O [Compound I-204, {(1R,2R,3S,4R)-4-[(5-{[1-(3-bromo-4-chlorobenzyl)-1H-pyrazol-3-yl]carbonyl}pyrimidin-4-yl)amino]-2,3-dihydroxycyclopentyl}methyl sulfamate] | < 10 nM | 99%
NS(=O)(=O)OC[C@H]1C[C@@H](Nc2ncncc2C(=O)c2ccn(Cc3cc4ccccc4s3)n2)C[C@@H]1O [Compound I-241, {(1R,2S,4R)-4-[(5-{[1-(1-benzothiophen-2-ylmethyl)-1H-pyrazol-3-yl]carbonyl}pyrimidin-4-yl)amino]-2-hydroxycyclopentyl}methyl sulfamate] | < 10 nM | 98%
NS(=O)(=O)OC[C@H]1C[C@@H](Nc2ncncc2C(=O)c2ccn(Cc3cc4ccccc4s3)c2)[C@@H](F)[C@@H]1O [Compound I-322, {(1R,2R,3R,4R)-4-[(5-{[1-(1-benzothiophen-2-ylmethyl)-1H-pyrrol-3-yl]carbonyl}pyrimidin-4-yl)amino]-3-fluoro-2-hydroxycyclopentyl}methyl sulfamate] | < 10 nM | 99%
